The source of these data is patent publication US20210290784A1, “POSITRON EMISSION TOMOGRAPHY (PET) RADIOTRACERS FOR IMAGING MACROPHAGE COLONY-STIMULATING FACTOR 1 RECEPTOR (CSF1R) IN NEUROINFLAMMATION” (The Johns Hopkins University, priority 2018, published 2021).

Some results are limits rather than exact numbers.

Experiment [1] addresses T1, CSF1R Human RTK Kinase (Homo sapiens, UniProt P07333).
T1 construct: purchased Eurofins
Kind of experiment: CSF1R Human RTK Kinase, Enzymatic Radiometric Assay, Eurofins. As to conditions: commercial assay. It counts as biochemical.

For experiment [2], the target named is CSF1R (Homo sapiens, UniProt P07333). Description: CSF1R competition binding assay, KinomeScan, DiscoverX. More on the design: purchased DiscoverX. As to conditions: commercial assay.
For experiment [3], the system named is microglia. As to conditions: chronic treatment of mice; cited from earlier work.
Experiment [4] concerns the target T2, TSPO (Rattus norvegicus, UniProt P16257).
T2 construct: host or cells: LPS-treated rats (cited study)
As to conditions: LPS-treated rats; cited from earlier work.

The target in experiment [5] is T3, CSF1R (Mus musculus, UniProt P09581).
T3 sequence (P09581 20-977): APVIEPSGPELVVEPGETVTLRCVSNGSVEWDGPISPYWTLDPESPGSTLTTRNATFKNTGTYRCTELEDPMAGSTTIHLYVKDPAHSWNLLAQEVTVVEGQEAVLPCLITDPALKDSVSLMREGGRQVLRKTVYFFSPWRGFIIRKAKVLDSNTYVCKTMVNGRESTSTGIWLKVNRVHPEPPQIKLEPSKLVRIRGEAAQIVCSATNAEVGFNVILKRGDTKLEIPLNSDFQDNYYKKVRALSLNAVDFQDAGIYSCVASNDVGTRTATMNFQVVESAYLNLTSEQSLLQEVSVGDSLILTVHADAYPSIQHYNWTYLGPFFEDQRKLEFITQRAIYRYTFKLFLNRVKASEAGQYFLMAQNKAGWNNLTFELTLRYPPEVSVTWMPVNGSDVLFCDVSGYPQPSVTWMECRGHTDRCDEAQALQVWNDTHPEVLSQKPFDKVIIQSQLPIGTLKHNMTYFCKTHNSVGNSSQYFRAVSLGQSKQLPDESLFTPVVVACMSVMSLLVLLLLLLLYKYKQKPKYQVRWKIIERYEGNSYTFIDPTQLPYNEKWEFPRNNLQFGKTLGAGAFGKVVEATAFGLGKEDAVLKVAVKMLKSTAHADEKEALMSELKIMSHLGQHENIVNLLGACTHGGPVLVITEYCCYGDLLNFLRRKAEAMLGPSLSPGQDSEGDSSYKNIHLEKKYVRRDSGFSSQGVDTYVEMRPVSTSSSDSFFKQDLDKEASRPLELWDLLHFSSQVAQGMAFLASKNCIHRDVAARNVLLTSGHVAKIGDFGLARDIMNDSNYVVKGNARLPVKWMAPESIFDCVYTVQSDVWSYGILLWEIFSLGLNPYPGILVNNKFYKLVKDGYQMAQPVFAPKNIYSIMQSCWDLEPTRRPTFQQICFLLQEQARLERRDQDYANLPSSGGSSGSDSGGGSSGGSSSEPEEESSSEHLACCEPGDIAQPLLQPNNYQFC
As to conditions: i.p.-LPS mice, blocker 1 mg/kg i.p., 5 min before radiotracer.

CSF1R (Homo sapiens, UniProt P07333), sequence (P07333 20-972, species assumed): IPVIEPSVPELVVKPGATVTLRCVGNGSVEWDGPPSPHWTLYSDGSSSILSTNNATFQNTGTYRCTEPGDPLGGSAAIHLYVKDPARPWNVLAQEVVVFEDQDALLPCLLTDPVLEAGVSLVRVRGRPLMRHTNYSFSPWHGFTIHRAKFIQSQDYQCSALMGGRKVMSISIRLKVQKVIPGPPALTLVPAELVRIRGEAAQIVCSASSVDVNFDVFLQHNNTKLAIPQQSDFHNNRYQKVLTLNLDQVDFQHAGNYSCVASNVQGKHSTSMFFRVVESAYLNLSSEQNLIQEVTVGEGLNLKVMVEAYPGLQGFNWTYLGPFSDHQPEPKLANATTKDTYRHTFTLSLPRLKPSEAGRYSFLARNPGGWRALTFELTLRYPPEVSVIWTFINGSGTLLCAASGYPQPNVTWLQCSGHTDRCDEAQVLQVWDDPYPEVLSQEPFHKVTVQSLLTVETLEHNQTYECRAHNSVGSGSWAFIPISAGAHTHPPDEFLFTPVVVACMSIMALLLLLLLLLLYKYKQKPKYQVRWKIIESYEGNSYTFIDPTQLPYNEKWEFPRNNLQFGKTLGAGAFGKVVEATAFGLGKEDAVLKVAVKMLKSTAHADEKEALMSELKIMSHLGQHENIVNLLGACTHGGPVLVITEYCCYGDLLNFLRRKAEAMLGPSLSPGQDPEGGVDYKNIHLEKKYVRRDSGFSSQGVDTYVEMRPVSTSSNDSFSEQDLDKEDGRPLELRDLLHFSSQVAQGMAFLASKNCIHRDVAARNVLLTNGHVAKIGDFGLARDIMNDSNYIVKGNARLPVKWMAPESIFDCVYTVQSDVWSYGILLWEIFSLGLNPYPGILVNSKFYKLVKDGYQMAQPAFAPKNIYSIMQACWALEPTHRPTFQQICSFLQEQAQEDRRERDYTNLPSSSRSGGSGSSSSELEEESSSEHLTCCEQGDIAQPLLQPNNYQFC
T1 sequence (P07333 20-972): as the sequence (P07333 20-972, species assumed) above

For the compound `CC1CCN(c2cc(N3CCN(CCF)CC3)ccc2NC(=O)c2cc(C#N)c[nH]2)CC1` [1l JHU11764, 4-Cyano-N-(4-(4-(2-fluoroethyl)piperazin-1-yl)-2-(4-methylpiperidin-1-yl)phenyl)-1H-pyrrole-2-carboxamide], the concentration for half-maximal inhibition (IC50) in experiment [1] amounted to 3.14 nM.

For the compound `CN1CCN(c2ccc(NC(=O)c3coc(C#N)c3)c(N3CCCCC3)c2)CC1` [1h JHU11766, 5-Cyano-N-(4-(4-methylpiperazin-1-yl)-2-(piperidin-1-yl)phenyl)furan-3-carboxamide], in experiment [2], the Kd is greater than 1000 nM.

Compound `CN1CCN(c2ccc(NC(=O)c3cccc(F)n3)c(N3CCCCC3)c2)CC1` [1i JHU11767, 6-Fluoro-N-(4-(4-methylpiperazin-1-yl)-2-(piperidin-1-yl)phenyl)picolinamide] displayed a dissociation constant Kd in experiment [2] of 30 nM.

With `FC(F)(F)c1ccc(CNc2ccc(Cc3c[nH]c4ncc(Cl)cc34)cn2)cn1` [PLX3397, pexidartinib], the depletion of microglia in experiment [3] is reported as 90%.

Consider `CN1CCN(c2ccc(NC(=O)c3cc(C#N)co3)c(N3CCCCC3)c2)CC1` [1g JHU11765, 4-Cyano-N-(4-(4-methylpiperazin-1-yl)-2-(piperidin-1-yl)phenyl)furan-2-carboxamide], for which the dissociation constant (Kd) in experiment [2] was greater than 1000 nM.

`N#Cc1ccc(C(=O)Nc2ccc(N3CCN(CCF)CC3)cc2N2CCCCC2)o1` [1k JHU11763, 5-Cyano-N-(4-(4-(2-fluoroethyl)piperazin-1-yl)-2-(piperidin-1-yl)phenyl)furan-2-carboxamide] gave an IC50 in experiment [1] of 12.9 nM. Moreover, the Kd in experiment [2] worked out at 32 nM.

Take `CCC(C)N([11CH3])C(=O)c1cc2ccccc2c(-c2ccccc2Cl)n1` (stereo not drawn) [[^11C]PK11195]: in experiment [4], the BP value is on record as 0.47.

For `CN1CCN(c2ccc(NC(=O)c3ccc(C#N)o3)c(N3CCCCC3)c2)CC1` [1a JHU11744, 5-Cyano-N-(4-(4-methylpiperazin-1-yl)-2-(piperidin-1-yl)phenyl)furan-2-carboxamide], the “blocking of [11C]CPPC SUVR uptake by CSF1R inhibitor” value in experiment [5] is “significantly decreased the uptake to the control level”.
